# Data reported in patent US20160193179A1, “Treatment of Cardiovascular Risk in Diabetic Patients” (EVOLVA SA, priority 2012, published 2016).
# Columns and labels:
# [1] = system: human coronary artery smooth muscle cells; test: Human coronary artery smooth muscle cell proliferation (WST-1); assay type: cell-based
# Description: Human coronary artery SMC is cultured in SmGM2 kit medium. At 80% confluence, the SMCs are trypsinized and resuspended in either DMEM supplemented with 2% FCS (“low serum media”), or in SmGM2 kit medium containing 5% FCS, 2 ng/ml FGF, 0.5 ng/ml EGF, 5 μg/ml insulin (“growth factor media”). Subsequently, 5000 cells in 200 μL are added to each well in a 96-well plate and left to adhere overnight. Either vehicle or Compound 3 (50 nM, 500 nM, 5 μM) is added to the wells 1 h before U 46619 at different concentrations (0.1 nM to 10 μM) and incubated for another 48 h. All experiments are repeated 3-5 times for each experimental condition.
# Cell proliferation is evaluated using WST-1 reagent according to the manufacturer's instructions. In brief, after replacement of phenol red containing media by 200 μL transparent serum-supplemented DMEM, 10 μL of diluted WST-1 reagent is added to each well at the end of the 48 h incubation period. After 1 h incubation at 37° C., the absorbance of the formazan dye formed is measured at 440 nm using a microplate reader.
# All results are expressed as mean±SE. Statistically significant differences are determined by a one-way analysis of variances, followed by Holm-Sidak post hoc test, for multiple comparisons, using Sigma Stat software. A P value of less than 0.05 is considered significant.
# [2] = Bioavailability (statement); conditions: in vivo
# [3] = system: platelet aggregation in PRP of type-2 diabetic patients; test: Platelet aggregation in citrate-anticoagulated PRP, light transmission aggregometry (LTA); assay type: cell-based, human; conditions: for ADP 5 late platelet aggregation (mean ± SD) / ADP 5 max platelet aggregation (mean ± SD): ADP 5 μM; for ADP 5 late platelet aggregation (mean ± SD) / ADP 20 late platelet aggregation (mean ± SD) / U-46619 late platelet aggregation (mean ± SD) / AA late platelet aggregation (mean ± SD) / COLL late platelet aggregation (mean ± SD): late aggregation at 6 minutes; for ADP 5 late platelet aggregation (mean ± SD) / ADP 5 max platelet aggregation (mean ± SD) / ADP 20 late platelet aggregation (mean ± SD) / ADP 20 max platelet aggregation (mean ± SD) / U-46619 late platelet aggregation (mean ± SD) / U-46619 max platelet aggregation (mean ± SD) / AA late platelet aggregation (mean ± SD) / COLL late platelet aggregation (mean ± SD) / COLL max platelet aggregation (mean ± SD): PRP ± 100 nM Compound 3 in vitro; for ADP 5 max platelet aggregation (mean ± SD) / ADP 20 max platelet aggregation (mean ± SD) / U-46619 max platelet aggregation (mean ± SD) / AA max platelet aggregation (mean ± SD) / COLL max platelet aggregation (mean ± SD): maximal aggregation; for ADP 20 late platelet aggregation (mean ± SD) / ADP 20 max platelet aggregation (mean ± SD): ADP 20 μM; for U-46619 late platelet aggregation (mean ± SD) / U-46619 max platelet aggregation (mean ± SD): U-46619 7 uM; for AA late platelet aggregation (mean ± SD) / AA max platelet aggregation (mean ± SD): arachidonic acid 1 mM; for AA max platelet aggregation (mean ± SD): PRP ± 100 nM Compound 3 in vitro 10 min 37°C; for COLL late platelet aggregation (mean ± SD) / COLL max platelet aggregation (mean ± SD): collagen 3 ug/ml
# Description: Patient population: Ten patients affected by type-2 diabetes mellitus and CAD (coronary artery disease), on chronic daily treatment with 81 mg aspirin (enteric coated acetylsalicylic acid, Cardioaspirin, Bayer, Germany) are switched to clopidogrel (75 mg/day) monotherapy for 7-10 days prior to study. Pharmacodynamic assessments are performed while on aspirin (81 mg) monotherapy and clopidogrel (75 mg) monotherapy.
# Blood sampling with 19-gauge needle or larger without the use of tourniquet. The first two ml of blood sampled was discarded. The venous blood samples are drawn into tri-sodium citrate filled tubes (BD Vacutainer 0.109 M. Ref. 363048) for the LTA. All tri-sodium citrate used to anticoagulate a blood sample remains in the plasma phase since it was not taken up by platelets, erythrocytes and leukocytes. Citrate plasma concentration and the resulting free plasma Ca2+ needed for platelet aggregation is directly determined by the individual haematocrit.
# Platelet-rich plasma (PRP) is prepared by centrifugation at 120×g for 10 min at room temperature. Autologous platelet-poor plasma (PPP) is prepared by centrifugation at 2300×g for 15 min at room temperature. The PRP platelet count is adjusted to 250.000/ul by the autologous PPP. Stability for the platelet aggregation test is 2 hours at room temperature. Platelet aggregation is performed using LTA [2-5]. Blood is collected in citrated tubes. Citrate concentrations are adjusted according to the individual haematocrit levels according to prior LTA studies using Evolva compound. LTA is assessed using PRP by the turbidimetric method in a 2-channel aggregometer (Chrono-Log 490 Model, Chrono-Log Corp., Havertown) according to the instructions of the manufacturer. Light transmission is adjusted to 0% with the PRP and to 100% for the PPP for each measurement. Curves are recorded for 6 minutes. Platelet aggregation is determined as the maximal percent change in light transmittance from baseline using PPP as a reference as well as late platelet aggregation at 6 minutes. Platelet agonists include U-46619 (7 uM), arachidonic acid (1 mM), collagen (3 ug/ml) and ADP (20 μM and 5 μM). Pharmacodynamic testing is performed following 10 min in vitro incubation at 37° C. of PRP with 100 nM Compound 3 and without 100 nM Compound 3 (placebo).
# Total of 10 LTA analysis per patient at each time point; total 2 time points=20 assessments. Table 1 and FIG. 6B compare aspirin vs. aspirin+Compound 3, Table 2 and FIG. 7A compare clopidogrel vs. clopidigrel+Comppound 3, and Table 3 and FIG. 7B compare aspirin+Compound 3 vs. clopidogrel+Comound 3.
SMILES,"concentration of maximal response (cell number, WST-1) ([1]; growth factor media)","cell number assessed by WST-1 ([1]; growth factor media, U46619 0.1 nM to 10 μM, 48 h)","absorbance vs. vehicle-treated cells (WST-1) ([1]; growth factor media, U46619 at 0.1 μM and higher)",SMC proliferation ([1]; low serum media (2% FCS)),bioavailability [2],solubility (Solubility (statement)),ADP 5 late platelet aggregation (mean ± SD) [3],ADP 5 max platelet aggregation (mean ± SD) [3],ADP 20 late platelet aggregation (mean ± SD) [3],ADP 20 max platelet aggregation (mean ± SD) [3],U-46619 late platelet aggregation (mean ± SD) [3],U-46619 max platelet aggregation (mean ± SD) [3],AA late platelet aggregation (mean ± SD) [3],AA max platelet aggregation (mean ± SD) [3],COLL late platelet aggregation (mean ± SD) [3],COLL max platelet aggregation (mean ± SD) [3]
CCCCC[C@H](O)/C=C/[C@@H]1[C@@H](C/C=C\CCCC(=O)O)[C@H]2CO[C@@H]1C2 [Compound U46619],1 nM,bell-shaped concentration-dependent increase,does not significantly differ,did not significantly alter,,,,,,,,,,,,
"O=C(O)CC/C=C\C[C@@H]1CO[C@H](c2ccccc2Cl)O[C@@H]1c1ccccc1O (single isomer, unassigned) [Compound 2]",,,,,poor,poor solubility,,,,,,,,,,
"COC(=O)[C@H](c1ccccc1Cl)N1CCc2sccc2C1 [CLOP, clopidogrel]",,,,,,,19.7 ± 21.9%,32.8 ± 17.2%,44.6 ± 18.9%,54.8 ± 13.3%,68.8 ± 13.8%,71.6 ± 11.6%,47.6 ± 28.2%,49.7 ± 28.2%,70.5 ± 10.5%,72.6 ± 10.2%
"CC(=O)Oc1ccccc1C(=O)O [ASA, acetylsalicylic acid]",,,,,,,46.3 ± 15%,52.6 ± 12%,72 ± 6%,74.3 ± 6%,74.9 ± 4.6%,77 ± 5.2%,8.5 ± 23%,9.4 ± 22.7%,59.6 ± 17.2%,61.4 ± 17.6%
